{"source": "patent US7098307B2", "about": "“Neo-tryptophan” (Mayo Foundation for Medical Education and Research, priority 1998, dated 2006)", "key": {"[1]": {"experiment": "Degradation in human plasma (HPLC peak area)", "format": "in vitro ADME", "details": "human; 25% plasma, 37° C., 0.5 mg/mL polypeptide; read-out: half-time, Plasma Human (converted)", "from_the_text": "(§1) For the degradation studies, data were plotted in linear form as a semi-log plot with SigmaPlot for Windows Version 4.00. Linear regression on these plots provided the parameters used to calculate the half-time (t1/2) for degradation of each polypeptide. The correlation coefficient (R) for the linear regression was taken as a measure of the goodness-of-fit."}, "human NTR1 [2]": {"molecular_target": "T1, human NTR1 (Homo sapiens, UniProt P30989)", "T1 construct": "expressed in transfected cells; host or cells: CHO-K1", "experiment": "Competition binding with [3H]NT, membranes of CHO-K1 cells transfected with human NTR1", "description": "(§2) CHO-K1 cells were stably transfected with nucleic acid encoding either the human NTR1 or the rat NTR1, and cultured in 150 mm petri plates with 35 mL of Dulbecco-modified Eagle's medium containing 100 μM minimal essential medium nonessential amino acids (GIBCO) supplemented with 5% (v/v) FetalClone II bovine serum product (Hyclone Labs, Logan, Utah). CHO cells (subculture 9–19) were harvested at confluency. Briefly, the medium from each plate was removed by aspiration, and the cells washed with 6 mL of 50 mM Tris-HCl (pH 7.4) and resuspended in 5–10 mL of Tris-HCl by scraping the cells with a rubber spatula. The resuspended cells were placed into a centrifuge tube and collected by centrifugation at 300× g for five minutes at 4° C. in a GPR centrifuge (Beckman Instruments, Fullerton, Calif.). The cellular pellet (in 50 mM Tris-HCl, 1 mM EDTA, pH 7.4) was stored at […] until radioligand binding was performed.\n(§3) The supernatant was decanted and discarded, and the cellular pellet was resuspended in 2 mL of Tris-HCl, 1 mM EDTA (pH 7.4) followed by homogenization with a Brinkmann Polytron at setting 6 for ten seconds. Centrifugation was repeated as above and the supernatant was decanted and discarded. The resulting final cellular pellet was resuspended in 50 mM Tris-HCl, lmM EDTA, 0.1% bovine serum albumin, and 0.2 mM bacitracin.\n(§4) Incubation was at 20° C. for 30 minutes. Each reaction was terminated by addition of cold 0.9% NaCl (5×1.5 mL) followed by rapid filtration through a GF/B filter strip that had been pretreated with 0.2% polyethylenimine."}, "rat NTR1": {"molecular_target": "T2, rat NTR1 (Rattus norvegicus, UniProt P20789)", "T2 construct": "expressed in transfected cells; host or cells: CHO-K1", "experiment": "Competition binding with [3H]NT, membranes of CHO-K1 cells transfected with rat NTR1", "description": "as §2, §3, §4"}, "human NTR1 [3]": {"molecular_target": "T1, human NTR1", "experiment": "PI turnover ([3H]IP1) in intact CHO-K1 cells, human NTR1", "format": "cell-based", "description": "To measure PI turnover, intact CHO-K1 cells were harvested at about 80% confluency. Cells were detached from the petri plates by removal of culture medium followed by incubation of the cellular monolayer for 20 minutes at 37° C. with gentle shaking in a modified Puck's D1 solution containing 2 mM EGTA. […] Briefly, intact CHO cells were prelabeled with D-myo-[^3H]inositol (18.3 Ci/mmol) in the presence of lithium chloride (final concentration, 10 mM). […] For the experiments described herein, the stimulation time was 30 minutes, and the number of CHO cells per assay tube was 1.5×10^5."}, "[4]": {"experiment": "Hot plate test (antinociception, % MPE) in rats"}, "[5]": {"experiment": "Degradation in rat plasma (HPLC peak area)", "format": "in vitro ADME", "details": "25% plasma, 37° C., 0.5 mg/mL polypeptide, read-out: half-time, Plasma Rat (converted)", "from_the_text": "as §1"}, "[6]": {"experiment": "Apomorphine-induced climbing, sniffing and licking behavior in rats", "format": "in vivo, rat", "description": "Apomorphine was used to assess the ability of NT analogs to act as neuroleptics. Briefly, male Sprague-Dawley rats were pretreated intraperitoneally with either NT69L or saline only. Thirty minutes following pretreatment, the rats received a subcutaneous injection of apomorphine (600 μg/kg). Occasionally, the effectiveness of NT69L was assessed by measuring antinociception and hypothermia just prior to apomorphine administration. Control animals included rats receiving NT69L followed by saline only, and rats receiving no treatment. The apomorphine was dissolved in oxygen-free boiled 0.9% NaCl solution containing 0.1% ascorbic acid and 0.1% metabisulfite to prevent oxidation. The volume of injection was 1 mL/kg under the loose skin at the back of the animal's neck. Inunediately following injection, the rats were placed in cages for observation. About 5–10 minutes later, behavioral monitoring was initiated and lasted for one hour. Climbing episodes were measured by observing the number of times the rat moved up and down in a vertical position during a two minute observation period. Statistical analysis was done using the Student's t-test with P<0.05 being considered significant. Graphs and ED50 data were generated using GraphPad Prism® software (version 2.01, GraphPad Software, Inc., San Diego, Calif.)."}, "[7]": {"experiment": "Body weight and food intake in rats", "format": "in vivo, rat", "details": "for increase from original body weight at day 15: saline 29%", "description": "Two groups of male Sprague-Dawley rats (small and large) and one group of genetically obese Zucker rats were used to study the influence of NT69L on various aspects of body weight. The group of small Sprague-Dawley rats weighed about 270 g at the beginning of the study, while the group of large Sprague-Dawley rats weighted about 400 g. […] The rats had free access to commercial hard rat chow pellets and tap water. During the study, the rats received 100 μL of either saline only or 1 μg/kg, 10 μg/kg, or 1 mg/kg of NT69L on days 1, 2, 7, 8, 11, and 12. Food intake (g), water consumption (mL), and body weight (g) were recorded daily for 15 days. The results were presented as mean ± SEM, or as % of original weight. The data were compared by variance analysis (unpaired or paired Student's t test) and Rank sum test."}, "[8]": {"experiment": "Body temperature (hypothermia) in rats", "details": "for change in body temperature: 5 mg/kg ip"}, "[9]": {"details": "5 mg/kg ip after four days at 1 mg/kg ip"}, "[10]": {"details": "intraperitoneal administration (NT64L 1 mg/kg)"}, "[11]": {"details": "1 mg/kg ip, 30 minutes before apomorphine"}}, "note": "Where “and” joins values, the source holds several entries; their conditions need not be identical. Equal values may be shown once. Square brackets hold non-standard residues; d marks the D form. Peptide text beside a SMILES is read from it. Ala(indol-4-yl) = N[C@@H](Cc1cccc2[nH]ccc12)C(=O)O; NMeR = CN[C@@H](CCCNC(=N)N)C(=O)O; Tle = CC(C)(C)[C@H](N)C(=O)O"}
{"molecule": "CN[C@@H](CCCNC(=N)N)C(=O)N[C@@H](CCCCN)C(=O)N1CCC[C@H]1C(=O)N[C@@H](Cc1cccc2[nH]ccc12)C(=O)N[C@H](C(=O)N[C@@H](CC(C)C)C(=O)O)C(C)(C)C", "note": "[NT69L] (H-[NMeR]KP[Ala(indol-4-yl)][Tle]L-OH; N-terminus and C-terminus assumed)", "values": [{"measurement": "half-life at 0.5 mg/mL", "setting": "[1]", "value": 20.8, "unit": "days"}, {"measurement": "Kd", "setting": "human NTR1 [2]", "value": "1.55 ± 0.09", "unit": "nM"}, {"measurement": "increase in binding affinity at the human receptor versus Eisai", "setting": "human NTR1 [2]", "value": 60, "unit": "fold"}, {"measurement": "Kd", "setting": "rat NTR1", "value": "0.82 ± 0.07", "unit": "nM"}, {"measurement": "increase in binding affinity at the rat receptor versus Eisai", "setting": "rat NTR1", "value": 6, "unit": "fold"}, {"measurement": "EC50", "setting": "human NTR1 [3]", "value": 2.3, "unit": "nM"}, {"measurement": "improvement in potency at PI turnover versus Eisai, human NTR1", "setting": "human NTR1 [3]", "value": "about 130 fold"}, {"measurement": "time up to which peak % MPE of 100% was observed", "setting": "[4]; 1 mg/kg intraperitoneal", "value": "about 200 minutes"}, {"measurement": "time of Peak % MPE", "setting": "[4]; 1 mg/kg intraperitoneal, rats", "value": 300, "unit": "min"}, {"measurement": "% MPE after the first injection", "setting": "[4]; 1 mg/kg ip daily, day 1", "value": 100, "unit": "%"}, {"measurement": "analgesic effect after the second injection", "setting": "[4]; 1 mg/kg ip daily, day 2", "value": "no analgesic effect"}, {"measurement": "analgesic effect after the third injection", "setting": "[4]; 1 mg/kg ip daily, day 3", "value": "no analgesic effect"}, {"measurement": "analgesic effect on 5× challenge", "setting": "[4]; [9]", "value": "no analgesic effect"}, {"measurement": "induction of antinociception (hot plate)", "setting": "[4]; [10]", "value": "did induce"}, {"measurement": "ED50 % MPE", "setting": "[4]; intraperitoneal, @ 90 min", "value": 0.3, "unit": "mg/kg"}, {"measurement": "peak % MPE value", "setting": "[4]; nasal, 5 mg/kg, at 60 minutes", "value": 70, "unit": "%"}, {"measurement": "peak % MPE value", "setting": "[4]; oral, 20 mg/kg", "value": 11, "unit": "%"}, {"measurement": "time of Peak % MPE", "setting": "[4]; oral, 20 mg/kg", "value": 30, "unit": "min"}, {"measurement": "half-life at 0.5 mg/mL", "setting": "[5]", "value": 10.4, "unit": "days"}, {"measurement": "effect on apomorphine-induced climbing behavior", "setting": "[6]; [11]", "value": "long-lasting blockade of the climbing behavior"}, {"measurement": "effect on apomorphine-induced sniffing and licking behaviors", "setting": "[6]; [11]", "value": "did not influence"}, {"measurement": "effect on apomorphine-induced climbing behavior", "setting": "[6]; 5 mg/kg ip", "value": "completely blocked"}, {"measurement": "ED50 blockade of apomorphine-induced climbing", "setting": "[6]; ip, 75 minutes after NT69L, 45 minutes after apomorphine 600 μg/kg sc", "value": 0.016, "unit": "mg/kg"}, {"measurement": "food intake versus saline controls", "setting": "[7]; Zucker rats, one to two days post injection", "value": "significantly reduced"}, {"measurement": "increase in original body weight by day 15", "setting": "[7]; genetically obese Zucker rats, 1 mg/kg ip, saline 31%", "value": 25, "unit": "%"}, {"measurement": "reduction in original body weight by day 15", "setting": "[7]; large Sprague-Dawley rats, 1 mg/kg ip, saline […] increase", "value": 3.0, "unit": "%"}, {"measurement": "food intake versus saline controls", "setting": "[7]; large Sprague-Dawley rats, one to two days post injection", "value": "significantly (P<0.003) less"}, {"measurement": "increase from original body weight at day 15", "setting": "[7]; small Sprague-Dawley rats, 1 μg/kg ip", "value": 9.0, "unit": "%"}, {"measurement": "increase from original body weight at day 15", "setting": "[7]; small Sprague-Dawley rats, 10 μg/kg ip", "value": 8.4, "unit": "%"}, {"measurement": "food intake versus saline controls", "setting": "[7]; small Sprague-Dawley rats, throughout the experiment", "value": "significantly (P<0.003) less"}, {"measurement": "time up to which body temperature reduction remained significant", "setting": "[8]; 1 mg/kg intraperitoneal", "value": "up to 300 minutes"}, {"measurement": "Peak BT change", "setting": "[8]; 1 mg/kg intraperitoneal, rats", "value": "−5.3 °C and −5.3 @ ° C."}, {"measurement": "body temperature lowering after the first injection", "setting": "[8]; 1 mg/kg ip daily, day 1", "value": "about 4 degrees"}, {"measurement": "body temperature lowering after the second injection", "setting": "[8]; 1 mg/kg ip daily, day 2", "value": 1.5, "unit": "degrees"}, {"measurement": "body temperature lowering after the third injection", "setting": "[8]; 1 mg/kg ip daily, day 3", "value": "no body temperature lowering was detected"}, {"measurement": "reduction in body temperature on 5× challenge", "setting": "[8]; [9]", "value": "comparable to the reduction normally observed in naive rats"}, {"measurement": "change in body temperature", "setting": "[8]; 30 minutes after injection", "value": "about −3 °C"}, {"measurement": "change in body temperature", "setting": "[8]; 77 minutes after injection", "value": "about −4 °C"}, {"measurement": "induction of hypothermia", "setting": "[8]; [10]", "value": "did induce"}, {"measurement": "ED50 BT", "setting": "[8]; intraperitoneal, @ 90 min", "value": 0.4, "unit": "mg/kg"}, {"measurement": "peak reduction in body temperature", "setting": "[8]; intraperitoneal, dose not restated", "value": 5.3, "unit": "°C"}, {"measurement": "ED50 body temperature lowering", "setting": "[8]; ip, at 90 minutes", "value": 0.39, "unit": "mg/kg"}, {"measurement": "peak reduction in body temperature (change)", "setting": "[8]; nasal, 5 mg/kg, at 30 minutes", "value": "−1.4", "unit": "°C"}, {"measurement": "peak reduction in body temperature (change)", "setting": "[8]; oral, 20 mg/kg", "value": "−0.63", "unit": "°C"}, {"measurement": "time of peak reduction in body temperature", "setting": "[8]; oral, 20 mg/kg", "value": 60, "unit": "min"}]}
